Assay results reported in patent publication US11834698B2, “Process for determining enzyme activity in a cell by activity-based reporter gene technology (ABRGT)” (INDIAN INSTITUTE OF SCIENCE EDUCATION AND RESEARCH, priority 2018, dated 2023).
Peptide text beside a SMILES is read from it. * marks the point of attachment. Cbz = O=C(OCc1ccccc1)*; CH2F = FC*

Legend:
[1] = target: T1, caspase-7 GFPspark (Homo sapiens, UniProt P55210); assay: AbRGT FRET imaging / acceptor photobleaching, caspase-7 GFPspark in MCF-7 cells; format: cell-based; details: for effect of inhibitor on FRET signal / signal in Rh channel in presence of inhibitor: MCF-7, inhibitor 50 μM pre-treatment, STS 6 h, probe 1
T1 construct: host or cells: MCF-7, HEK-293
T1 sequence (P55210 24-198 limits assumed): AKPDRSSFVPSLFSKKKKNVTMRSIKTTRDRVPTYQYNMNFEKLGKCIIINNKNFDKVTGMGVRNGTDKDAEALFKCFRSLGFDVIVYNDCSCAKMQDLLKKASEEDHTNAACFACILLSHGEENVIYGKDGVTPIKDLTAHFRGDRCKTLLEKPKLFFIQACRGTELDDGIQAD
T1 sequence (P55210 207-303 limits assumed): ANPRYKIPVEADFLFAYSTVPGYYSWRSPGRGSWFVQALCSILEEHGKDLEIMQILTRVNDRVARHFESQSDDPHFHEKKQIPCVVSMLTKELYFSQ
Description: FIGS. 13A and 13B depict specific detection of caspase-7 GFPspark in MCF-7 cells. […] Cells were fixed and the fluorescence signal was collected in GFP, FRET and Rh channel. […] Bar graph representing the rise in GFP intensity in ROI after rhodamine photobleaching was 89 a.u. as compared to the unbleached background, i.e., 9 a.u. FRET efficiency was calculated to be 32±2%.
(§1) FIG. 15 depicts confocal images of MCF-7 cells in GFP, FRET and Rh channel Caspase-7 GFPspark transfected MCF-7 cells were treated with STS (1 μM) for 6 h and labelled (a) (i) with probe 1 (1 μM) probe. Cells were pre-treated with (a) (ii) Z-VAD-FMK (50 μM) or (a) (iii) Q-VD-OPh (50 μM) pan-caspase inhibitors 1 h before the probe labelling. Caspase-9 GFPspark transfected MCF-7 cells were treated with STS (1 μM) for 4 h and labelled (b) (i) with probe 1 (1 μM) probe. Cells were pre-treated with (b) (ii) Z-VAD-FMK (50 μM) 1 h before probe labelling. Caspase-8 GFPspark overexpressing HEK-293 cells were treated with TRAIL (1 μg/ml) for 5 h and labelled (c) (i) with the probe 1. Cells were pre-treated with (c) (ii) Z-VAD-FMK (50 μM) 1 h before probe labelling.
(§2) Plasmids and transient transfection: GFPspark tagged plasmids; caspase-3 GFPspark tag (Cat: HG10050-ACG), caspase-7 GFPspark tag (HG10049-ACG), caspase-8 GFPspark (HG10078-ACG), caspase-9 GFPspark (HG11151-ACG) and cathepsin B GFPspark (HG10483-ACG) were procured from Sino Biological. For transfection, cells were seeded in a 6-well plate at a density of 0.4 million cells/well. At 60-70% confluency, cells were transiently transfected for 24 h at 37° C. with 1 μg of the GFPspark tagged plasmid DNA construct mixed with 5 μL of Lipofectamine 2000 (Invitrogen) according to the manufacturer's instructions. 24 h post-transfection, cells were visualized under the GFP filter for GFPspark expression under fluorescence microscope at 10× magnification.
Labelling of active caspases in apoptotic cells with FABP: After 24 h of transfection, cells were treated with STS (1 μM) drug or TRAIL (1 μg/ml) for apoptotic induction and incubated for 2, 4, 6 and 8 h at 37° C. in a humidified atmosphere of 5% CO2/95% air. Cells were gently scraped off from the surface at the end of apoptotic induction and centrifuged at 3000 rpm for 5 min. The cell pellet was resuspended in 300 μL of fresh DMEM containing 1 μM of probe for probe 2 and incubated for additional 2 h at 37° C. in a humidified atmosphere of 5% CO2. Cells were again centrifuged at 3000 rpm for 5 mins, and the supernatant was decanted. Cells were washed with 1×PBS, thrice finally resuspended in 20 μL of 1×PBS. The cell suspension was put on a slide, and a coverslip was placed over it. It was left for air drying. Slides were then imaged for GFP, FRET and rhodamine fluorescence signals under confocal microscopy.
Inhibitor assay: Cells were pre-treated with 50 μM of Z-VAD-FMK or Q-VD-OPh or E-64 inhibitor 1 h before probe 1 labelling and incubated for 1 h at 37° C. in a humidified atmosphere of 5% CO2. Cells were gently scraped off from the surface at the end of inhibitor treatment and centrifuged at 3000 rpm for 5 min Cells were then labelled with the probe 1 as described in the previous section.
Fluorescence imaging studies, FRET procedure: Images were collected on Zeiss LSM710 confocal microscope with 25 mW argon laser using Zen10 software. The laser was tuned to lines at 488 nm (excitation laser for GFPspark) and 561 nm (excitation laser for rhodamine) Cells were examined with a 40× 1.3 NA Zeiss oil immersion objective and 2.4× zoom. Images were collected in the three channels; GFP channel, argon laser tuned at 488 nm with 2% laser intensity and fluorescence emission was collected in emission range of 490-550 nm; rhodamine channel, argon laser tuned to 561 nm laser with 2% laser intensity and fluorescence emission was collected in range 550-650 nm and FRET channel with excitation laser of GFPSPARK channel and emission range of rhodamine channel. […]

[2] = target: T2, caspase-8 GFPspark (Homo sapiens, UniProt Q14790); assay: AbRGT FRET imaging / acceptor photobleaching, caspase-8 GFPspark in HEK-293 cells; format: cell-based
T2 construct: host or cells: HEK-293
T2 sequence (Q14790 217-374 limits assumed): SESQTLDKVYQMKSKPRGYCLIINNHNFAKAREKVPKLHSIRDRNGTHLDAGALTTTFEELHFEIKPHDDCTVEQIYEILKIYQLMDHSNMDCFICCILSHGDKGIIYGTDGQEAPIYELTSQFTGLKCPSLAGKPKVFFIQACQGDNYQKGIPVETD
T2 sequence (Q14790 385-479 limits assumed): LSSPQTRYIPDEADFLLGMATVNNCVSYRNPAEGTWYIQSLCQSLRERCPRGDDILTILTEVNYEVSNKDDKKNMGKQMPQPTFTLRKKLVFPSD
Description: as §1
FIG. 18 depicts specific detection of caspase-8 GFPspark in HEK-293 cells. Casp-8 GFPspark (1 μg) transfected HEK-293 cells were treated with TRAIL ([…]) for 6 h and labelled with the probe 1 (1 μM) for 2 h. Cells were washed, fixed and the fluorescence signal was collected in GFP, FRET and Rh channels. The acceptor photobleaching experiment was performed to confirm the FRET signal as described previously. The bar graph representing a rise in GFP intensity in ROI after rhodamine photobleaching was 82 a.u. as compared to the unbleached background, i.e., 11 a.u. The FRET efficiency was calculated to be 31±1%.
as §2
Labelling of active caspases in apoptotic cells with FABP: After 24 h of transfection, cells were treated with STS (1 μM) drug or TRAIL (1 μg/ml) for apoptotic induction and incubated for 2, 4, 6 and 8 h at 37° C. in a humidified atmosphere of 5% CO2/95% air. Cells were gently scraped off from the surface at the end of apoptotic induction and centrifuged at 3000 rpm for 5 min. […] Slides were then imaged for GFP, FRET and rhodamine fluorescence signals under confocal microscopy. […]
Fluorescence imaging studies, FRET procedure: Images were collected on Zeiss LSM710 confocal microscope with 25 mW argon laser using Zen10 software. […]

[3] = HEK-293, TRAIL, Z-VAD-FMK pre-treatment
[4] = HEK-293, TRAIL 6 h, probe 1 μM 2 h

effect of inhibitor on FRET signal [1]	signal in Rh channel in presence of inhibitor [1]	effect of inhibitor on signal in FRET channel [2, 3]	effect of inhibitor on signal in Rh channel [2, 3]	Molecule	rise in GFP intensity in ROI after rhodamine photobleaching ([1]; MCF-7, STS 1 μM 5 h, probe 1 μM) [a.u.]	calculated FRET efficiency ([1]; MCF-7, STS 1 μM 5 h or 6 h, probe 1 μM) [%]	calculated FRET efficiency [2, 4] [%]	rise in GFP intensity in ROI after rhodamine photobleaching [2, 4] [a.u.]
abolished	significant punctate labelling			CC(C)[C@H](NC(=O)c1ccc2ccccc2n1)C(=O)N[C@@H](CC(=O)O)C(=O)COc1c(F)cccc1F [Q-VD-OPh]				
completely abolished	completely abolished	abolished	abolished	COC(=O)C[C@H](NC(=O)[C@H](C)NC(=O)[C@@H](NC(=O)OCc1ccccc1)C(C)C)C(=O)CF [Z-VAD-FMK] (Cbz-Val-Ala-Asp(OMe)-CH2F)				
				Rhodamine-VAD-fluoromethyl ketone [probe 1]	89	32±2	31±1	82
